We go through 6 molecules from ChEMBL document CHEMBL1146295, “An efficient synthesis of quinoxaline derivatives from 4-chloro-4-deoxy-alpha-D-galactose and their cytotoxic activities” (Bioorg Med Chem Lett, 2007).

SMILES strings stand for the structures. Converted amounts (≈) assume the structure as drawn.

The test in a line: Cytotoxicity against human Ec9706 cells after 48 hrs by MTT assay. As to conditions: EC9706, 48 h. The class given is functional, cell-based. (Tetrazolium dyes change colour on reduction, which living cells bring about.)
By IC50 is commonly meant the concentration at which inhibition is half-maximal. Higher therefore signals lower potency. For `COC(OC)C1OC(C)(C)OC1Cc1cnc2cc(Cl)ccc2n1` (stereo unspecified), the half-maximal inhibitory concentration (IC50) was 30.5 µg/mL (≈ 86.4 µM).

The molecule `COC(OC)C1OC(C)(C)OC1Cc1cnc2cc(C(=O)c3ccccc3)ccc2n1` (stereo unspecified) yielded a half-maximal inhibitory concentration (IC50) of 80 µg/mL (≈ 189 µM).

In the case of `COC(OC)C1OC(C)(C)OC1Cc1cnc2ccc(Cl)cc2n1` (stereo unspecified), the 50% inhibitory concentration (IC50) is 30.5 µg/mL (≈ 86.4 µM).

`COC(OC)C1OC(C)(C)OC1Cc1cnc2ccc([N+](=O)[O-])cc2n1` (stereo unspecified) displayed a half-inhibitory concentration (IC50) of 69.2 µg/mL (≈ 190 µM).

As for `COC(OC)C1OC(C)(C)OC1Cc1cnc2ccccc2n1` (stereo unspecified), the IC50 was > 100 µg/mL.

In turn, `COC(OC)C1OC(C)(C)OC1Cc1cnc2ccc(C(=O)c3ccccc3)cc2n1` (stereo unspecified) had an IC50 of 80 µg/mL (≈ 189 µM).
